± gives the expanded uncertainty stated by the source.
Test: wn = mass fraction of the nth substance listed
Details: Liquid; for mass density: Vibrating tube method

CN(CCO)CCO [N-methyldiethanolamine] + O
viscosity [mPa·s]
Details	w1 = 0.1	w1 = 0.2	w1 = 0.2002	w1 = 0.3	w1 = 0.4
293.15 K, 93 kPa, Concentric cylinders viscometry	1.463 ± 0.03	2.293 ± 0.047	–	3.942 ± 0.08	–
293.15 K, 100 kPa, Falling or rolling sphere viscometry	1.476 ± 0.046	2.35 ± 0.073	2.35 ± 0.073	3.999 ± 0.12	–
293.15 K, 5000 kPa, Falling or rolling sphere viscometry	1.475 ± 0.046	–	2.353 ± 0.073	4.018 ± 0.12	–
293.15 K, 10000 kPa, Falling or rolling sphere viscometry	1.475 ± 0.046	–	2.357 ± 0.073	4.038 ± 0.12	–
293.15 K, 20000 kPa, Falling or rolling sphere viscometry	1.471 ± 0.045	–	2.364 ± 0.073	4.077 ± 0.13	–
293.15 K, 30000 kPa, Falling or rolling sphere viscometry	1.472 ± 0.045	–	2.372 ± 0.073	4.114 ± 0.13	–
293.15 K, 40000 kPa, Falling or rolling sphere viscometry	1.47 ± 0.045	–	2.38 ± 0.073	4.153 ± 0.13	–
293.15 K, 60000 kPa, Falling or rolling sphere viscometry	1.474 ± 0.046	–	2.399 ± 0.074	4.231 ± 0.13	–
293.15 K, 80000 kPa, Falling or rolling sphere viscometry	1.477 ± 0.046	–	2.419 ± 0.075	4.311 ± 0.13	–
293.15 K, 100000 kPa, Falling or rolling sphere viscometry	1.485 ± 0.046	–	2.437 ± 0.075	4.39 ± 0.14	–
293.15 K, 120000 kPa, Falling or rolling sphere viscometry	1.492 ± 0.046	–	2.464 ± 0.076	4.478 ± 0.14	–
313.15 K, 93 kPa, Concentric cylinders viscometry	0.9079 ± 0.019	1.342 ± 0.028	–	2.094 ± 0.043	3.145 ± 0.064
313.15 K, 100 kPa, Falling or rolling sphere viscometry	0.912 ± 0.028	1.345 ± 0.042	1.345 ± 0.042	2.095 ± 0.065	3.238 ± 0.1
313.15 K, 5000 kPa, Falling or rolling sphere viscometry	0.914 ± 0.028	–	1.347 ± 0.042	2.106 ± 0.065	3.27 ± 0.1
313.15 K, 10000 kPa, Falling or rolling sphere viscometry	0.915 ± 0.028	–	1.349 ± 0.042	2.118 ± 0.065	3.302 ± 0.1
313.15 K, 20000 kPa, Falling or rolling sphere viscometry	0.92 ± 0.028	–	1.358 ± 0.042	2.144 ± 0.066	3.365 ± 0.1
313.15 K, 30000 kPa, Falling or rolling sphere viscometry	0.923 ± 0.028	–	1.367 ± 0.042	2.168 ± 0.067	3.428 ± 0.11
313.15 K, 40000 kPa, Falling or rolling sphere viscometry	0.927 ± 0.029	–	1.377 ± 0.043	2.192 ± 0.068	3.491 ± 0.11
313.15 K, 60000 kPa, Falling or rolling sphere viscometry	0.936 ± 0.029	–	1.398 ± 0.043	2.244 ± 0.069	3.618 ± 0.11
313.15 K, 80000 kPa, Falling or rolling sphere viscometry	0.945 ± 0.029	–	1.418 ± 0.044	2.296 ± 0.071	3.74 ± 0.12
313.15 K, 100000 kPa, Falling or rolling sphere viscometry	0.955 ± 0.029	–	1.445 ± 0.045	2.356 ± 0.073	3.866 ± 0.12
313.15 K, 120000 kPa, Falling or rolling sphere viscometry	0.964 ± 0.03	–	1.466 ± 0.045	2.412 ± 0.074	3.996 ± 0.12
333.15 K, 93 kPa, Concentric cylinders viscometry	0.6344 ± 0.014	0.8719 ± 0.018	–	1.276 ± 0.027	1.82 ± 0.038
333.15 K, 100 kPa, Falling or rolling sphere viscometry	0.624 ± 0.019	0.872 ± 0.027	0.872 ± 0.027	1.271 ± 0.039	1.843 ± 0.057
333.15 K, 5000 kPa, Falling or rolling sphere viscometry	0.627 ± 0.019	–	0.876 ± 0.027	1.278 ± 0.039	1.861 ± 0.057
333.15 K, 10000 kPa, Falling or rolling sphere viscometry	0.63 ± 0.019	–	0.881 ± 0.027	1.286 ± 0.04	1.88 ± 0.058
333.15 K, 20000 kPa, Falling or rolling sphere viscometry	0.634 ± 0.02	–	0.89 ± 0.027	1.302 ± 0.04	1.921 ± 0.059
333.15 K, 30000 kPa, Falling or rolling sphere viscometry	0.638 ± 0.02	–	0.898 ± 0.028	1.316 ± 0.041	1.956 ± 0.06
333.15 K, 40000 kPa, Falling or rolling sphere viscometry	0.643 ± 0.02	–	0.907 ± 0.028	1.332 ± 0.041	1.992 ± 0.061
333.15 K, 60000 kPa, Falling or rolling sphere viscometry	0.652 ± 0.02	–	0.924 ± 0.029	1.367 ± 0.042	2.063 ± 0.064

mass density [kg/m3]
Details	w1 = 0.1	w1 = 0.2002	w1 = 0.3	w1 = 0.4
293.15 K, 100 kPa	1007 ± 0.7	1016.5 ± 0.7	1026.7 ± 0.7	1036.6 ± 0.7
293.15 K, 500 kPa	1007.2 ± 0.7	1016.6 ± 0.7	1026.9 ± 0.7	1036.8 ± 0.7
293.15 K, 1000 kPa	1007.4 ± 0.7	1016.8 ± 0.7	1027.1 ± 0.7	1036.9 ± 0.7
293.15 K, 2000 kPa	1007.8 ± 0.7	1017.2 ± 0.7	1027.4 ± 0.7	1037.3 ± 0.7
293.15 K, 5000 kPa	1009 ± 0.7	1018.4 ± 0.7	1028.6 ± 0.7	1038.3 ± 0.7
293.15 K, 10000 kPa	1011.1 ± 0.7	1020.3 ± 0.7	1030.4 ± 0.7	1040.1 ± 0.7
293.15 K, 15000 kPa	1013.2 ± 0.7	1022.2 ± 0.7	1032.2 ± 0.7	1041.9 ± 0.7
293.15 K, 20000 kPa	1015.3 ± 0.7	1024.2 ± 0.7	1034.1 ± 0.7	1043.6 ± 0.7
293.15 K, 30000 kPa	1019.4 ± 0.7	1028 ± 0.7	1037.7 ± 0.7	1047.1 ± 0.7
293.15 K, 40000 kPa	1023.4 ± 0.7	1031.8 ± 0.7	1041.2 ± 0.7	1050.4 ± 0.7
293.15 K, 50000 kPa	1027.3 ± 0.7	1035.4 ± 0.7	1044.6 ± 0.7	1053.8 ± 0.7
293.15 K, 60000 kPa	1031.1 ± 0.7	1039 ± 0.7	1048 ± 0.7	1057.1 ± 0.7
293.15 K, 70000 kPa	1035 ± 0.7	1042.6 ± 0.7	1051.4 ± 0.7	1060.3 ± 0.7
293.15 K, 80000 kPa	1038.5 ± 0.7	1045.9 ± 0.7	1054.6 ± 0.7	1063.3 ± 0.7
293.15 K, 90000 kPa	1042.2 ± 0.7	1049.4 ± 0.7	1057.9 ± 0.7	1066.4 ± 0.8
293.15 K, 100000 kPa	1045.7 ± 0.7	1052.8 ± 0.7	1061.1 ± 0.8	1069.5 ± 0.8
293.15 K, 110000 kPa	1049.2 ± 0.7	1056 ± 0.8	1064.1 ± 0.8	1072.4 ± 0.8
293.15 K, 120000 kPa	1052.7 ± 0.8	1059.3 ± 0.8	1067.2 ± 0.8	1075.4 ± 0.8
293.15 K, 130000 kPa	1056.1 ± 0.8	1062.6 ± 0.8	1070.3 ± 0.8	1078.4 ± 0.8
293.15 K, 140000 kPa	1059.5 ± 0.8	1065.6 ± 0.8	1073.2 ± 0.8	1081.1 ± 0.8
313.15 K, 100 kPa	1000.2 ± 0.7	1008.5 ± 0.7	1017.2 ± 0.7	1025.5 ± 0.7
313.15 K, 500 kPa	1000.4 ± 0.7	1008.6 ± 0.7	1017.4 ± 0.7	1025.6 ± 0.7
313.15 K, 1000 kPa	1000.6 ± 0.7	1008.8 ± 0.7	1017.5 ± 0.7	1025.8 ± 0.7
313.15 K, 2000 kPa	1001 ± 0.7	1009.2 ± 0.7	1017.9 ± 0.7	1026.2 ± 0.7
313.15 K, 5000 kPa	1002.2 ± 0.7	1010.4 ± 0.7	1019.1 ± 0.7	1027.3 ± 0.7
313.15 K, 10000 kPa	1004.3 ± 0.7	1012.3 ± 0.7	1020.9 ± 0.7	1029.2 ± 0.7
313.15 K, 15000 kPa	1006.3 ± 0.7	1014.2 ± 0.7	1022.8 ± 0.7	1031 ± 0.7
313.15 K, 20000 kPa	1008.2 ± 0.7	1016.1 ± 0.7	1024.6 ± 0.7	1032.8 ± 0.7
313.15 K, 30000 kPa	1012.3 ± 0.7	1019.9 ± 0.7	1028.4 ± 0.7	1036.3 ± 0.7
313.15 K, 40000 kPa	1016.2 ± 0.7	1023.7 ± 0.7	1032 ± 0.7	1040 ± 0.7
313.15 K, 50000 kPa	1019.9 ± 0.7	1027.3 ± 0.7	1035.5 ± 0.7	1043.2 ± 0.7
313.15 K, 60000 kPa	1023.8 ± 0.7	1031 ± 0.7	1039 ± 0.7	1046.6 ± 0.7
313.15 K, 70000 kPa	1027.4 ± 0.7	1034.4 ± 0.7	1042.3 ± 0.7	1050 ± 0.7
313.15 K, 80000 kPa	1031 ± 0.7	1037.9 ± 0.7	1045.5 ± 0.7	1053.1 ± 0.7
313.15 K, 90000 kPa	1034.5 ± 0.7	1041.2 ± 0.7	1048.7 ± 0.7	1056.2 ± 0.7
313.15 K, 100000 kPa	1038.2 ± 0.7	1044.7 ± 0.7	1052 ± 0.7	1059.5 ± 0.8
313.15 K, 110000 kPa	1041.5 ± 0.7	1047.9 ± 0.7	1055.2 ± 0.8	1062.5 ± 0.8
313.15 K, 120000 kPa	1044.9 ± 0.7	1051.1 ± 0.8	1058.3 ± 0.8	1065.5 ± 0.8
313.15 K, 130000 kPa	1048.1 ± 0.8	1054.3 ± 0.8	1061.3 ± 0.8	1068.4 ± 0.8
313.15 K, 140000 kPa	1051.4 ± 0.8	1057.4 ± 0.8	1064.5 ± 0.8	1071.4 ± 0.8
333.15 K, 100 kPa	990.5 ± 0.7	997.8 ± 0.7	1005.4 ± 0.7	1012.4 ± 0.7
333.15 K, 500 kPa	990.6 ± 0.7	998 ± 0.7	1005.6 ± 0.7	1012.7 ± 0.7
333.15 K, 1000 kPa	990.8 ± 0.7	998.2 ± 0.7	1005.7 ± 0.7	1012.8 ± 0.7
333.15 K, 2000 kPa	991.3 ± 0.7	998.6 ± 0.7	1006.2 ± 0.7	1013.2 ± 0.7
333.15 K, 5000 kPa	992.5 ± 0.7	999.8 ± 0.7	1007.3 ± 0.7	1014.4 ± 0.7
333.15 K, 10000 kPa	994.6 ± 0.7	1001.8 ± 0.7	1009.3 ± 0.7	1016.4 ± 0.7
333.15 K, 15000 kPa	996.6 ± 0.7	1003.8 ± 0.7	1011.3 ± 0.7	1018.4 ± 0.7
333.15 K, 20000 kPa	998.6 ± 0.7	1005.7 ± 0.7	1013.2 ± 0.7	1020.3 ± 0.7
333.15 K, 30000 kPa	1002.6 ± 0.7	1009.7 ± 0.7	1017 ± 0.7	1024.1 ± 0.7
333.15 K, 40000 kPa	1006.7 ± 0.7	1013.6 ± 0.7	1020.9 ± 0.7	1027.9 ± 0.7
333.15 K, 50000 kPa	1010.4 ± 0.7	1017.2 ± 0.7	1024.3 ± 0.7	1031.4 ± 0.7
333.15 K, 60000 kPa	1014.2 ± 0.7	1020.9 ± 0.7	1027.9 ± 0.7	–
